Reference: patent US10238641B2, “Materials and methods for diagnosis, prevention and/or treatment of stress disorders and conditions associated with A-beta peptide aggregation” (The United States of America as represented by the …, priority 2008, dated 2019)

Key:
[1] = system: ERK1/2; test: BDNF-stimulated pERK1/2 in primary cortical neurons, Western blot; format: cell-based; conditions: BDNF 100 ng/ml plus cotinine 10 μM, 1 h
[2] = system: Arc; test: BDNF-induced Arc expression in primary cortical neurons, Western blot; format: cell-based; conditions: BDNF plus cotinine 2 h, 7 DIV cortical neurons
Excerpt: Then cells were washed with PBS and disrupted by sonication in lysis buffer. Cell extracts were separated by SDS-PAGE and analyzed by Western blot with antibodies against Arc and β-tubulin, which was used as a control (FIG. 16B). The histogram represents the mean±SEM of experiments performed in triplicate. […] BDNF, brain-derived neurotrophic factor.

[3] = system: rat cortical cells exposed to Aβ1-42; test: Aβ toxicity assay, MTT cell viability; format: cell-based
Experimental: Primary cortical embryonic rat neurons were incubated with 5 μM Aβ in the presence or absence of various concentrations cotinine for […] as described (Echeverria et al. (2005)). Cell viability was assessed using the MTT assay (Sigma). As an alternative approach cell viability after exposure to Aβ and cotinine was assessed using the vital dye calcein-AM (green fluorescence) to stain live cells and propidium iodide to stain dead cells. MTT values were normalized to control values considered 100%.
It has been discovered that cotinine protects brain cortical cells against the toxicity of the Amyloid beta peptide. The cortical cells were exposed to 5 microM Aβ for 24 hours and 48 hours and analyzed for cell viability using two viability tests. Cell viability was quantified by MTT and propidium iodide (PI) and calcein-AM staining assays. MTT assay measures the mitochondrial conversion of the tetrazolium salt MTT (3-(4,5-dimethylthiazol-2-yl)-2,5-diphenyl tetrazolium bromide) to formazan. To perform the MTT assay the cell culture medium was replaced with medium containing MTT (0.5 mg/mL). Following 1-4 h of incubation at 37° C., MTT formazan crystals were dissolved in DMSO and absorbance at 570 nm was measured. Absorbance values are a measure of cell viability. MTT results are expressed as percentage of vehicle treated controls. MTT assays were performed by measuring the levels of formazan after dissolving the precipitates in DMSO. The double calcein—AM and PI staining, involves staining with PI (a fluorescent nucleic acid dye used for the staining of dead cells) and calcein-AM a compound that inside of live brain cells, is converted to the green fluorescent compound calcein. After 30 minutes of incubation of the cells with these compounds were washed and analyzed by fluorescence microscopy. […] Cotinine inhibits Abeta oligomerization and prevents its toxicity on cortical neurons.
Embryonic rat cortical neurons were cultured following the protocol described (Brewer (1995)) but using embryonic cortical tissues obtained from Brain Bits LLC (Springfield, Ill., USA). The brain tissues were dissociated by 0.05% (v/v) trypsin digestion and dissociated by repeated passages through a pipette tip. Cortical cells (2×10^5 cells, 1,250 cells/mm^2) were plated in Neurobasal E medium, supplemented with 2% B27, and 1 mM Glutamax and plated onto 20-mm tissue culture wells coated with poly-D-lysine (0.1 mg/ml). Then cortical cells were incubated at 37° C. in a humidified incubator with 95% air/5% CO2 for 7-10 days, before being used for cell viability and protein expression analysis.
For the Aβ neurotoxicity assay, after 7 days in vitro (DIV) the conditioned media of cortical cells was replaced with Neurobasal E medium, supplemented with 2% B27 without antioxidants (B27-AO; Invitrogen, Carlsbad, Calif.) for 2 h. […]
Cell viability was quantified by MTT and propidium iodide (PI) and calcein-AM staining. […] Following 1-4 h incubation at 37° C., MTT formazan crystals were dissolved in DMSO and absorbance at […] was measured. MTT results are expressed as a percentage of vehicle-treated controls.
To investigate the effect of cotinine on Aβ neurotoxicity, rat cortical cells were grown in conditions that permitted us to obtain a neuron-enriched culture (around 95% neuron and 5% glial cells) for 7-10 days. […] After 24 h, cell survival was assessed by using MTT and PI and calcein-AM cell viability assays. […]

[4] = system: DARPP-32; test: DARPP-32 activity in neurons; format: cell-based; conditions: neurons from rat brain cells
[5] = system: fear-induced anxiety in mice; test: Elevated plus maze after fear conditioning (fear-induced anxiety); format: in vivo
Experimental: Mice were trained for FC. After the retention test, the mice were tested for anxiety levels in the EPM. The number of entries into the open and closed arms and the exploratory behavior of the mice were determined using a video tracking software that measures movement in each section of the EPM.
To determine the effect of cotinine treatment on the levels of anxiety in the mice after re-exposure to a fear memory, we performed the same EPM test but 24 h after fear conditioning training (shock in the chamber) and immediately after re-exposure to the context (chamber), a reminder of the unconditioned aversive stimulus (the electric shock).

CN1C(=O)CC[C@H]1c1cccnc1 [cotinine]
BDNF-stimulated phosphorylation of ERK [1]: did not affect the BDNF-stimulated phosphorylation of ERK
BDNF-induced expression of Arc [2]: enhances the BDNF-induced expression of Arc
cell survival, % of vehicle-treated control cells (MTT) ([3]; 5 μM Aβ + 10 μM cotinine, 24 h, 7 DIV cortical cells, Aβ alone 76%): 85%
effect on Aβ neurotoxicity when cotinine is added after pre-aggregation of Aβ ([3]; Aβ pre-incubated 3 h at 4° C. without cotinine, then added to media containing 10 μM cotinine): not able to block Aβ neurotoxicity
increase in cell viability versus Aβ alone ([3]; Aβ pre-incubated with 10 μM cotinine 3 h at 4° C.): 22%
viability at 10 µM ([3]; Rattus norvegicus, Aβ pre-incubated with 10 μM cotinine 3 h at 4° C., then 24 h on cells, Aβ alone 66%±3.6): 87.3%
lowest cotinine concentration protecting cortical cells against Aβ toxicity (MTT) ([3]; added together with 5 μM Aβ, 24 h): 1 µM
activity of DARPP-32 [4]: increases the activity of DARPP-32
difference in time in the closed arms, untreated compared with cotinine (EPM after FC) ([5]; cotinine 1 mg/kg, p=0.0060): highly significant
time in the open arms, vehicle compared with cotinine (EPM after FC) ([5]; cotinine 1 mg/kg, p=0.0101): significantly less time in the open arms
time exploring, vehicle compared with cotinine (EPM after FC) ([5]; cotinine 1 mg/kg, p=0.0145): significantly less time exploring
time exploring, vehicle compared with cotinine (EPM after FC) ([5]; cotinine 5 mg/kg, p=0.0025): significantly less time exploring
difference in time in the closed arms, untreated compared with cotinine (EPM after FC) ([5]; cotinine 5 mg/kg, p=0.0111): highly significant
time in the open arms, vehicle compared with cotinine (EPM after FC) ([5]; cotinine 5 mg/kg, p=0.0545): no significant differences
